From patent US10131652B2, “Pyrimidinyloxy benzene derivatives as herbicides” (E. I. DU PONT DE NEMOURS AND COMPANY, priority 2014, dated 2018)

How the values were obtained:
Type in all cases: in vivo
[1] = system: barnyardgrass (Echinochloa crus-galli); experiment: Test C flooded paddy test plant response; details: Flood, 250 g ai/ha; scale of 0 to 100 where 0 is no effect and 100 is complete control; 13 to 15 days
How it was run: (§1)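 Plants grown to 2-leaf stage, flooded 3 cm above soil; compounds applied directly into paddy water, depth kept throughout. Visual rating versus controls after 13 to 15 days in greenhouse, 0 (no effect) to 100 (complete control).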

[2] = system: ducksalad (Heteranthera limosa); experiment: Test C flooded paddy test plant response; details: Flood, 250 g ai/ha; scale of 0 to 100 where 0 is no effect and 100 is complete control; 13 to 15 days
How it was run: as §1

[3] = system: rice (Oryza sativa); experiment: Test C flooded paddy test plant response; details: Flood, 250 g ai/ha; scale of 0 to 100 where 0 is no effect and 100 is complete control; 13 to 15 days
How it was run: as §1

[4] = system: small-flower umbrella sedge (Cyperus difformis); experiment: Test C flooded paddy test plant response; details: Flood, 250 g ai/ha; scale of 0 to 100 where 0 is no effect and 100 is complete control; 13 to 15 days
How it was run: as §1

[5] = system: barnyardgrass (Echinochloa crus-galli); experiment: Test B pre-/postemergence plant response
How it was run: (§2)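 Visual injury rating, 0 (no effect) to 100 (complete control), vs untreated controls after ~10 d greenhouse. Pre: directed soil spray after planting in loam/sand. Post: plants 2–10 cm, 1–2 leaf stage. Compound in non-phytotoxic solvent plus surfactant.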

[6] = system: pigweed (Amaranthus retroflexus); experiment: Test B pre-/postemergence plant response
How it was run: as §2

[7] = system: wheat (Triticum aestivum); experiment: Test B pre-/postemergence plant response
How it was run: as §2

[8] = system: corn (Zea mays); experiment: Test B pre-/postemergence plant response
How it was run: as §2

[9] = system: large (Lg) crabgrass (Digitaria sanguinalis); experiment: Test B pre-/postemergence plant response
How it was run: as §2

[10] = system: morningglory (Ipomoea spp.); experiment: Test B pre-/postemergence plant response
How it was run: as §2

[11] = system: giant foxtail (Setaria faberii); experiment: Test B pre-/postemergence plant response
How it was run: as §2

[12] = system: velvetleaf (Abutilon theophrasti); experiment: Test B pre-/postemergence plant response
How it was run: as §2

[13] = 125 g ai/ha, postemergence, 0 to 100 scale, 0 no effect, 100 complete control
[14] = Postemergence, 500 g ai/ha, 0 to 100 scale (0 no effect, 100 complete control)
[15] = Preemergence, 125 g ai/ha, 0 to 100 scale where 0 is no effect and 100 is complete control
[16] = Preemergence, 500 g ai/ha, 0 to 100 scale (0 no effect, 100 complete control)
[17] = Preemergence, 500 g ai/ha, 0 to 100 scale where 0 is no effect and 100 is complete control

Row | Structure (SMILES) | Barnyardgrass plant response rating [1] | Ducksalad plant response rating [2] | Rice plant response rating [3] | Sedge, Umbrella plant response rating [4] | Plant response rating, Barnyardgrass [5, 13] | Plant response rating, Barnyardgrass [5, 14] | Plant response rating, Barnyardgrass [5, 15] | Plant response rating, Pigweed [6, 13] | Plant response rating, Pigweed [6, 14] | Plant response rating, Pigweed [6, 15] | Plant response rating, Wheat [7, 13] | Plant response rating, Wheat [7, 14] | Plant response rating, Wheat [7, 15] | Plant response rating, Corn [8, 13] | Plant response rating, Corn [8, 14] | Plant response rating, Corn [8, 15] | Plant response rating, Crabgrass, Large [9, 13] | Plant response rating, Crabgrass, Large [9, 14] | Plant response rating, Crabgrass, Large [9, 15] | Plant response rating, Morningglory [10, 13] | other results
1 | Clc1cnc(Oc2ccccc2-c2nccc(Cl)n2)nc1 [Compound 18] | 0 | 0 | 0 | 0 | 0 | 0 | 0 | 0 | 0 | 0 | 0 | 0 | 0 | 0 | 0 | 0 | 0 | 0 | 0 | 0 | Plant response rating, Barnyardgrass [5, 16]: 0; Plant response rating, Pigweed [6, 16]: 30; Plant response rating, Wheat [7, 16]: 0; Plant response rating, Corn [8, 16]: 0; Plant response rating, Crabgrass, Large [9, 16]: 20; Plant response rating, Morningglory [10, 14]: 0; Plant response rating, Morningglory [10, 15]: 0; Plant response rating, Morningglory [10, 16]: 0; Plant response rating, Foxtail, Giant [11, 13]: 0; Plant response rating, Foxtail, Giant [11, 14]: 0; Plant response rating, Foxtail, Giant [11, 15]: 0; Plant response rating, Foxtail, Giant [11, 16]: 10; Plant response rating, Velvetleaf [12, 13]: 0; Plant response rating, Velvetleaf [12, 14]: 0; Plant response rating, Velvetleaf [12, 15]: 0; Plant response rating, Velvetleaf [12, 16]: 0
2 | FC(F)(F)c1cccc(-c2ccccc2Oc2ncc(Cl)cn2)n1 [Compound 19] | 0 | 0 | 0 | 0 | 0 | 0 | 0 | 0 | 0 | 0 | 0 | 0 | 0 | 0 | 0 | 0 | 0 | 0 | 0 | 0 | Plant response rating, Barnyardgrass [5, 16]: 0; Plant response rating, Pigweed [6, 16]: 20; Plant response rating, Wheat [7, 16]: 0; Plant response rating, Corn [8, 16]: 0; Plant response rating, Crabgrass, Large [9, 16]: 50; Plant response rating, Morningglory [10, 14]: 0; Plant response rating, Morningglory [10, 15]: 0; Plant response rating, Morningglory [10, 16]: 0; Plant response rating, Foxtail, Giant [11, 13]: 0; Plant response rating, Foxtail, Giant [11, 14]: 0; Plant response rating, Foxtail, Giant [11, 15]: 0; Plant response rating, Foxtail, Giant [11, 16]: 70; Plant response rating, Velvetleaf [12, 13]: 0; Plant response rating, Velvetleaf [12, 14]: 0; Plant response rating, Velvetleaf [12, 15]: 0; Plant response rating, Velvetleaf [12, 16]: 0
3 | FC(F)(F)c1nccc(-c2ccccc2Oc2ncc(Cl)cn2)n1 [Compound 20] | 0 | 0 | 0 | 0 | 0 | 0 | 0 | 40 | 90 | 0 | 0 | 0 | 0 | 0 | 0 | 0 | 0 | 20 | 10 | 0 | Plant response rating, Barnyardgrass [5, 16]: 0; Plant response rating, Pigweed [6, 16]: 20; Plant response rating, Wheat [7, 16]: 0; Plant response rating, Corn [8, 16]: 0; Plant response rating, Crabgrass, Large [9, 16]: 70; Plant response rating, Morningglory [10, 14]: 50; Plant response rating, Morningglory [10, 15]: 0; Plant response rating, Morningglory [10, 16]: 0; Plant response rating, Foxtail, Giant [11, 13]: 0; Plant response rating, Foxtail, Giant [11, 14]: 20; Plant response rating, Foxtail, Giant [11, 15]: 10; Plant response rating, Foxtail, Giant [11, 16]: 60; Plant response rating, Velvetleaf [12, 13]: 0; Plant response rating, Velvetleaf [12, 14]: 30; Plant response rating, Velvetleaf [12, 15]: 0; Plant response rating, Velvetleaf [12, 16]: 20
4 | FC(F)(F)c1ccnc(-c2ccccc2Oc2ncc(Br)cn2)c1 [Compound 26] | 0 | 0 | 0 | 0 | 0 | 20 | 0 | 30 | 80 | 0 | 0 | 10 | 0 | 10 | 20 | 0 | 10 | 30 | 10 | 10 | Plant response rating, Barnyardgrass [5, 17]: 30; Plant response rating, Pigweed [6, 17]: 100; Plant response rating, Wheat [7, 17]: 0; Plant response rating, Corn [8, 17]: 0; Plant response rating, Crabgrass, Large [9, 17]: 100; Plant response rating, Morningglory [10, 14]: 50; Plant response rating, Morningglory [10, 15]: 0; Plant response rating, Morningglory [10, 17]: 0; Plant response rating, Foxtail, Giant [11, 13]: 0; Plant response rating, Foxtail, Giant [11, 14]: 30; Plant response rating, Foxtail, Giant [11, 15]: 0; Plant response rating, Foxtail, Giant [11, 17]: 90; Plant response rating, Velvetleaf [12, 13]: 10; Plant response rating, Velvetleaf [12, 14]: 80; Plant response rating, Velvetleaf [12, 15]: 10; Plant response rating, Velvetleaf [12, 17]: 80
5 | FC(F)(F)c1ccc(-c2ccccc2Oc2ncc(Br)cn2)nc1 [Compound 28] | 0 | 0 | 0 | 0 | 0 | 50 | 0 | 30 | 100 | 40 | 0 | 0 | 0 | 0 | 20 | 0 | 20 | 40 | 40 | 0 | Plant response rating, Barnyardgrass [5, 17]: 60; Plant response rating, Pigweed [6, 17]: 80; Plant response rating, Wheat [7, 17]: 0; Plant response rating, Corn [8, 17]: 0; Plant response rating, Crabgrass, Large [9, 17]: 100; Plant response rating, Morningglory [10, 14]: 30; Plant response rating, Morningglory [10, 15]: 0; Plant response rating, Morningglory [10, 17]: 0; Plant response rating, Foxtail, Giant [11, 13]: 20; Plant response rating, Foxtail, Giant [11, 14]: 40; Plant response rating, Foxtail, Giant [11, 15]: 30; Plant response rating, Foxtail, Giant [11, 17]: 90; Plant response rating, Velvetleaf [12, 13]: 40; Plant response rating, Velvetleaf [12, 14]: 100; Plant response rating, Velvetleaf [12, 15]: 0; Plant response rating, Velvetleaf [12, 17]: 60
6 | Cn1nc(C(F)(F)F)cc1-c1ccccc1Oc1ncc(Cl)cn1 [Compound 29] | 0 | 0 | 0 | 0 | 0 | 0 | 0 | 0 | 10 | 20 | 0 | 0 | 0 | 0 | 0 | 0 | 0 | 10 | 10 | 0 | Plant response rating, Barnyardgrass [5, 17]: 0; Plant response rating, Pigweed [6, 17]: 50; Plant response rating, Wheat [7, 17]: 0; Plant response rating, Corn [8, 17]: 0; Plant response rating, Crabgrass, Large [9, 17]: 30; Plant response rating, Morningglory [10, 14]: 0; Plant response rating, Morningglory [10, 15]: 0; Plant response rating, Morningglory [10, 17]: 0; Plant response rating, Foxtail, Giant [11, 13]: 0; Plant response rating, Foxtail, Giant [11, 14]: 0; Plant response rating, Foxtail, Giant [11, 15]: 0; Plant response rating, Foxtail, Giant [11, 17]: 10; Plant response rating, Velvetleaf [12, 13]: 0; Plant response rating, Velvetleaf [12, 14]: 0; Plant response rating, Velvetleaf [12, 15]: 0; Plant response rating, Velvetleaf [12, 17]: 0
